Experimental data published in patent US20230065577A1, “COMBINATIONS” (Recurium IP Holdings, LLC, priority 2019, published 2023).
Read-outs that look alike come from different tables or passages of the source.

What was measured:
Type in all cases: cell-based
DMS-53 cells = experiment: CTG Assay (CellTiter-Glo Luminescent Cell Viability Assay), DMS-53; conditions: Homo sapiens
Procedure: (§1) Cell proliferation was measured using the CellTiter-Glo® Luminescent Cell Viability Assay. The assay involved the addition of a single reagent (CellTiter-Glo® Reagent) directly to cells cultured in serum-supplemented medium. DMS-53 (ATCC, CRL-2062), MV4-11 (ATCC, CRL-9591), MCF-7 (ATCC, HTB-22) and ZR-75-1 (ATCC, CRL-1500) cells were cultured according to ATCC recommendations and were seeded at 20,000 cells per well.
(§2) Each compound evaluated was prepared as a DMSO stock solution (10 mM). For DMS-53 and MV4-11 cell lines, Compounds 1 and 5a were tested in triplicate using the respective IC50 concentrations indicated in Table 2. The MCF-7 combination assay was performed in duplicate with a 10-point serial dilution curve (1:3 dilution) for Compounds 1 and 5a, and a 10-point serial dilution curve (1:5 dilution) when treated in combination. The highest compound concentration was 10 μM with a 0.1% final DMSO concentration. Plates were incubated at 37° C., 5% CO2 for 72 h and then equilibrated at room temperature for approximately 30 min. […] Luminescence (RLU (relative light unit)) was recorded using a SpectraMAX, M5e plate reader according to CellTiter-Glo protocol. Percent inhibition was calculated using the following formula: % inhibition=(RLU*100/(RLU of the cell background)). IC50 of each compound was calculated using GraphPad Prism by nonlinear regression analysis.

MV4-11 cells = experiment: CTG Assay (CellTiter-Glo Luminescent Cell Viability Assay), MV4-11; conditions: Homo sapiens
Procedure: as §1, §2

[1] = system: MCF-7 breast cancer cells; experiment: CTG Assay (CellTiter-Glo Luminescent Cell Viability Assay), MCF-7 combination assay; conditions: Homo sapiens, MCF7, 72 h, 10-point dilution, top 10 μM
Procedure: as §1, §2

[2] = system: ZR-75-1 breast cancer cells; experiment: CTG Assay (CellTiter-Glo Luminescent Cell Viability Assay), ZR-75-1; conditions: Homo sapiens, 72 h
Procedure: as §1, §2

[3] = single agent, IC50 used as test concentration, read-out: Concentration (respective IC50 concentration)
[4] = read-out: Absolute IC50 Based on % Inhibition
[5] = read-out: Relative IC50 Based on % Inhibition

`C=CCn1c(=O)c2cnc(Nc3ccc(N4CCN(C)CC4)cc3)nc2n1-c1cccc(C(C)(C)O)n1` [Compound 1] gave an inhibition at 0.65 µM (DMS-53 cells; 650 nM, 72 h, triplicate) of 37%, an IC50 (DMS-53 cells; [3]) of 650 nM and an inhibition at 0.015 µM (MV4-11 cells; 15 nM, 72 h, triplicate) of 37%. It also gave an IC50 (MV4-11 cells; [3]) of 15 nM, an IC50 [1, 4] of 346 nM and an IC50 [1, 5] of 307 nM. For the same compound, the IC50 [2, 4] was 1770 nM and the IC50 [2, 5] was 1240 nM.
